The source of these data is PMC6364417, “Kinase inhibitor library screening identifies synergistic drug combinations effective in sensitive and resistant melanoma cells” (Journal of Experimental & Clinical Cancer Research : CR, 2019).

Holding throughout (assay): Kinase inhibitor library screening, PrestoBlue cell viability, 1 or 10 μM, 72 h
The subject of experiment [1] is A375-XP cells (Vemurafenib-resistant). The following applies: A375 XP.
Experiment [2] has as its system IGR37-XP cells (Vemurafenib-resistant). The following applies: IGR37 XP.
In experiment [3] the test system is 501Mel-GP cells (Dabrafenib-resistant). Conditions: 501Mel GP.
Experiment [4] deals with A375-GP cells (Dabrafenib-resistant). The following applies: A375 GP.
The subject of experiment [5] is 501Mel-XP cells (Vemurafenib-resistant). The following applies: 501Mel XP.
Experiment [6] relates to IGR37-GP cells (Dabrafenib-resistant). Conditions: IGR37 GP.
Experiment [7] relates to A375 cells (parental). The following applies: A375 Parental.
For experiment [8], the system named is 501Mel cells (parental). Conditions: 501Mel Parental. In a few lines: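 Single-point screen at two doses over three days. Parental and BRAF-inhibitor-resistant sublines (XP: Vemurafenib; GP: Dabrafenib) were assessed by PrestoBlue viability, reported relative to untreated cells.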
In experiment [9] the test system is IGR37 cells (parental). The following applies: IGR37 Parental.

As for `CCn1c(=O)c(-c2cc[nH]n2)cc2c(C)nc(N)nc21` [XL765], the “Cell viability in kinase inhibitor library screening, A375 XP, 1μΜ” value in experiment [1] (1μΜ, 72 h) came to 106.1. In experiment [2] (10μΜ, 72 h), this molecule registered a Cell viability in kinase inhibitor library screening, IGR37 XP, 10μΜ of 68.4%. Further, in experiment [3] (1μΜ, 72 h, in %), the “Cell viability in kinase inhibitor library screening, 501Mel GP, 1μΜ” value is 109.6. In addition, the “Cell viability in kinase inhibitor library screening, 501Mel GP, 10μΜ” value in experiment [3] (10μΜ, 72 h, in %) amounted to 92.1. Besides, the “Cell viability in kinase inhibitor library screening, A375 GP, 10μΜ” value in experiment [4] (10μΜ, 72 h) is recorded as 92.4. Also, in experiment [5] (1μΜ, 72 h, in %), the “Cell viability in kinase inhibitor library screening, 501Mel XP, 1μΜ” value came to 96.7. The “Cell viability in kinase inhibitor library screening, 501Mel XP, 10μΜ” value in [5] (10μΜ, 72 h, in %) was found to be 77.0. This molecule also gave a Cell viability in kinase inhibitor library screening, IGR37 GP, 10μΜ in experiment [6] (10μΜ, 72 h) of 96.8%. Also, the “Cell viability in kinase inhibitor library screening, IGR37 GP, 1μΜ” value in [6] (1μΜ, 72 h, in %) is 95.1. In addition, in experiment [7] (1μΜ, 72 h), the “Cell viability in kinase inhibitor library screening, A375 Parental, 1μΜ” value was determined as 105.9. Besides, the “Cell viability in kinase inhibitor library screening, 501Mel Parental, 1μΜ” value in [8] (1μΜ, 72 h, in %) amounted to 93.5. Besides, in [8] (10μΜ, 72 h, in %), the “Cell viability in kinase inhibitor library screening, 501Mel Parental, 10μΜ” value is recorded as 98.4. In addition, the “Cell viability in kinase inhibitor library screening, IGR37 Parental, 1μΜ” value in experiment [9] (1μΜ, 72 h, in %) came out at 100.4. The “Cell viability in kinase inhibitor library screening, IGR37 Parental, 10μΜ” value in experiment [9] (10μΜ, 72 h, in %) was determined as 106.2.
For the molecule `Cn1cc(-c2ccc3nnc(C(F)(F)c4ccc5ncccc5c4)n3n2)cn1` [JNJ-38877605], the “cell viability (kinase inhibitor library screening)” value in experiment [1] (1μΜ, 72 h) is 105.2%; in [1] (10μΜ, 72 h), 100.0%; in [2] (1μΜ, 72 h), 96.1%; in experiment [2] (10μΜ, 72 h) it was 62.2%; in experiment [3] (1μΜ, 72 h), 86.8%; in experiment [3] (10μΜ, 72 h) it was 64.7%. The “cell viability (kinase inhibitor library screening)” value turned out to be 97.0% in [4] (10μΜ, 72 h); 70.9% in [5] (1μΜ, 72 h); 57.1% in [5] (10μΜ, 72 h); 102.6% in experiment [6] (1μΜ, 72 h); 87.5% in [6] (10μΜ, 72 h); 97.6% in experiment [7] (10μΜ, 72 h). Moreover, the “cell viability (kinase inhibitor library screening)” value in experiment [7] (1μΜ, 72 h) stood at 99.7%; in experiment [8] (1μΜ, 72 h), 97.8%; in [8] (10μΜ, 72 h) it was 86.4%; in experiment [9] (1μΜ, 72 h), 106.0%; in experiment [9] (10μΜ, 72 h), 87.1%.
On to `Nc1ccc(-c2ccc3ncc4ccc(=O)n(-c5cccc(C(F)(F)F)c5)c4c3c2)cn1` [Torin 2], for which the “Cell viability in kinase inhibitor library screening, A375 XP, 1μΜ” value in [1] (1μΜ, 72 h) is 12.1. In addition, the “Cell viability in kinase inhibitor library screening, A375 XP, 10μΜ” value in experiment [1] (10μΜ, 72 h) stood at 2.9. The molecule also had a Cell viability in kinase inhibitor library screening, IGR37 XP, 10μΜ in experiment [2] (10μΜ, 72 h) of 1.3%. Also, in experiment [2] (1μΜ, 72 h, in %), the “Cell viability in kinase inhibitor library screening, IGR37 XP, 1μΜ” value turned out to be 14.1. Also, the “Cell viability in kinase inhibitor library screening, 501Mel GP, 1μΜ” value in [3] (1μΜ, 72 h, in %) came to 10.9. For the same molecule, the “Cell viability in kinase inhibitor library screening, 501Mel GP, 10μΜ” value in [3] (10μΜ, 72 h, in %) is listed as 0.7. Also, in experiment [4] (1μΜ, 72 h), the “Cell viability in kinase inhibitor library screening, A375 GP, 1μΜ” value stood at 7.9. Also, the “Cell viability in kinase inhibitor library screening, A375 GP, 10μΜ” value in experiment [4] (10μΜ, 72 h) was 4.0. The “Cell viability in kinase inhibitor library screening, 501Mel XP, 1μΜ” value in experiment [5] (1μΜ, 72 h, in %) is on record as 3.5. Further, the “Cell viability in kinase inhibitor library screening, 501Mel XP, 10μΜ” value in experiment [5] (10μΜ, 72 h, in %) is given as 0.164. Further, the Cell viability in kinase inhibitor library screening, IGR37 GP, 10μΜ in experiment [6] (10μΜ, 72 h) was found to be 2.7%. In [6] (1μΜ, 72 h, in %), the “Cell viability in kinase inhibitor library screening, IGR37 GP, 1μΜ” value was found to be 20.7. For the same molecule, the “Cell viability in kinase inhibitor library screening, A375 Parental, 10μΜ” value in [7] (10μΜ, 72 h) is 3.6. The “Cell viability in kinase inhibitor library screening, A375 Parental, 1μΜ” value in experiment [7] (1μΜ, 72 h) was 10.7. Besides, the “Cell viability in kinase inhibitor library screening, 501Mel Parental, 1μΜ” value in experiment [8] (1μΜ, 72 h, in %) turned out to be 5.6. Moreover, the “Cell viability in kinase inhibitor library screening, 501Mel Parental, 10μΜ” value in experiment [8] (10μΜ, 72 h, in %) is 0.8. Moreover, the “Cell viability in kinase inhibitor library screening, IGR37 Parental, 1μΜ” value in experiment [9] (1μΜ, 72 h, in %) was determined as 13.2. The “Cell viability in kinase inhibitor library screening, IGR37 Parental, 10μΜ” value in [9] (10μΜ, 72 h, in %) turned out to be 0.851.
In the case of `Cc1cc(Nc2cc(N3CCN(C)CC3)nc(Sc3ccc(NC(=O)C4CC4)cc3)n2)n[nH]1` [VX-680 (MK-0457, Tozasertib)], the “cell viability (kinase inhibitor library screening)” value was determined as 56.4% in experiment [1] (1μΜ, 72 h); 35.5% in experiment [1] (10μΜ, 72 h); 3.9% in [2] (10μΜ, 72 h); 85.8% in experiment [3] (1μΜ, 72 h); 48.3% in experiment [3] (10μΜ, 72 h); 45.1% in experiment [4] (1μΜ, 72 h). Also, the “cell viability (kinase inhibitor library screening)” value in [4] (10μΜ, 72 h) was 30.5%; in [5] (1μΜ, 72 h), 74.1%; in experiment [5] (10μΜ, 72 h), 26.8%; in experiment [6] (1μΜ, 72 h) it was 94.7%; in [6] (10μΜ, 72 h), 11.6%; in experiment [7] (10μΜ, 72 h), 26.3%. Moreover, the “cell viability (kinase inhibitor library screening)” value in experiment [7] (1μΜ, 72 h) is reported as 47.5%; in experiment [8] (1μΜ, 72 h), 85.5%; in experiment [8] (10μΜ, 72 h), 48.7%; in experiment [9] (1μΜ, 72 h) it was 89.0%; in experiment [9] (10μΜ, 72 h), 63.5%.
As to `CC(C)n1nc(-c2ccc3oc(N)nc3c2)c2c(N)ncnc21` [INK 128], in experiment [1] (1μΜ, 72 h), the “Cell viability in kinase inhibitor library screening, A375 XP, 1μΜ” value is on record as 19.9. The “Cell viability in kinase inhibitor library screening, A375 XP, 10μΜ” value in experiment [1] (10μΜ, 72 h) is recorded as 12.7. Also, the Cell viability in kinase inhibitor library screening, IGR37 XP, 10μΜ in [2] (10μΜ, 72 h) is 6.1%. Also, the “Cell viability in kinase inhibitor library screening, IGR37 XP, 1μΜ” value in experiment [2] (1μΜ, 72 h, in %) was 27.3. Also, in [3] (1μΜ, 72 h, in %), the “Cell viability in kinase inhibitor library screening, 501Mel GP, 1μΜ” value was determined as 17.2. For the same molecule, the “Cell viability in kinase inhibitor library screening, 501Mel GP, 10μΜ” value in experiment [3] (10μΜ, 72 h, in %) worked out at 6.6. In experiment [4] (1μΜ, 72 h), the “Cell viability in kinase inhibitor library screening, A375 GP, 1μΜ” value is given as 21.6. In addition, in experiment [4] (10μΜ, 72 h), the “Cell viability in kinase inhibitor library screening, A375 GP, 10μΜ” value turned out to be 13.0. In experiment [5] (1μΜ, 72 h, in %), the “Cell viability in kinase inhibitor library screening, 501Mel XP, 1μΜ” value stood at 11.6. In addition, in experiment [5] (10μΜ, 72 h, in %), the “Cell viability in kinase inhibitor library screening, 501Mel XP, 10μΜ” value came to 2.4. Besides, in experiment [6] (10μΜ, 72 h), the Cell viability in kinase inhibitor library screening, IGR37 GP, 10μΜ is 16.8%. Besides, in experiment [6] (1μΜ, 72 h, in %), the “Cell viability in kinase inhibitor library screening, IGR37 GP, 1μΜ” value worked out at 44.7. Besides, the “Cell viability in kinase inhibitor library screening, A375 Parental, 10μΜ” value in [7] (10μΜ, 72 h) was 13.5. In [7] (1μΜ, 72 h), the “Cell viability in kinase inhibitor library screening, A375 Parental, 1μΜ” value was found to be 19.9. In addition, in experiment [8] (1μΜ, 72 h, in %), the “Cell viability in kinase inhibitor library screening, 501Mel Parental, 1μΜ” value is on record as 15.4. In experiment [8] (10μΜ, 72 h, in %), the “Cell viability in kinase inhibitor library screening, 501Mel Parental, 10μΜ” value came to 5.9. Also, in [9] (1μΜ, 72 h, in %), the “Cell viability in kinase inhibitor library screening, IGR37 Parental, 1μΜ” value stood at 22.4. The “Cell viability in kinase inhibitor library screening, IGR37 Parental, 10μΜ” value in experiment [9] (10μΜ, 72 h, in %) was 13.5.
`Cc1nc(N)sc1-c1ccnc(Nc2ccc(N3CCOCC3)cc2)n1` [CYC116]: the “cell viability (kinase inhibitor library screening)” value in [1] (1μΜ, 72 h) is on record as 75.4%; in [1] (10μΜ, 72 h), 46.7%; in [2] (1μΜ, 72 h) it was 98.8%; in [2] (10μΜ, 72 h), 26.5%; in [3] (1μΜ, 72 h), 104.5%; in experiment [3] (10μΜ, 72 h) it was 44.7%. In addition, the “cell viability (kinase inhibitor library screening)” value in experiment [4] (1μΜ, 72 h) was found to be 52.0%; in experiment [4] (10μΜ, 72 h), 33.0%; in [5] (1μΜ, 72 h), 94.4%; in experiment [5] (10μΜ, 72 h), 30.0%; in experiment [6] (1μΜ, 72 h), 92.1%; in experiment [6] (10μΜ, 72 h), 50.1%. The “cell viability (kinase inhibitor library screening)” value in experiment [7] (10μΜ, 72 h) worked out at 33.9%; in [7] (1μΜ, 72 h), 54.1%; in experiment [8] (1μΜ, 72 h), 99.4%; in experiment [8] (10μΜ, 72 h) it was 67.9%; in experiment [9] (1μΜ, 72 h), 94.2%; in [9] (10μΜ, 72 h), 59.4%.
Turning to `COc1ccc2cc(-c3nc(-c4ccc([S+](C)[O-])cc4)[nH]c3-c3ccncc3)ccc2c1` (stereo not shown) [Tie2 kinase inhibitor], the “cell viability (kinase inhibitor library screening)” value in [1] (10μΜ, in %) is recorded as 97.1; in experiment [2] (10μΜ, in %), 62.0; in experiment [3] (1μΜ, in %), 107.0; in experiment [3] (10μΜ, in %), 87.5; in experiment [4] (1μΜ, in %), 96.7; in [4] (10μΜ, in %) it was 82.6. The “cell viability (kinase inhibitor library screening)” value in experiment [5] (1μΜ, in %) came out at 96.5; in experiment [5] (10μΜ, in %) it was 64.5; in [6] (1μΜ, in %) it was 94.1; in experiment [7] (10μΜ, in %) it was 96.4; in [8] (1μΜ, in %), 96.1; in experiment [8] (10μΜ, in %), 90.5. In addition, in [9] (10μΜ, in %), the “cell viability (kinase inhibitor library screening)” value is on record as 103.5.
